Measured values from patent US20090148850A1, “Methods for identifying modulators of P2RY14” (priority 2007, published 2009).

What was measured:
P2RY14 [1] = molecular target: T1, P2RY14 (Homo sapiens, UniProt Q15391); parameters: host or cells: yeast and HEK-293 cells (Chambers et al., J. Biol. Chem. 275: 10767-10771 (2000)); conditions: yeast and mammalian cells, Chambers et al. 2000; cited from earlier work
T1 sequence (Q15391 1-338): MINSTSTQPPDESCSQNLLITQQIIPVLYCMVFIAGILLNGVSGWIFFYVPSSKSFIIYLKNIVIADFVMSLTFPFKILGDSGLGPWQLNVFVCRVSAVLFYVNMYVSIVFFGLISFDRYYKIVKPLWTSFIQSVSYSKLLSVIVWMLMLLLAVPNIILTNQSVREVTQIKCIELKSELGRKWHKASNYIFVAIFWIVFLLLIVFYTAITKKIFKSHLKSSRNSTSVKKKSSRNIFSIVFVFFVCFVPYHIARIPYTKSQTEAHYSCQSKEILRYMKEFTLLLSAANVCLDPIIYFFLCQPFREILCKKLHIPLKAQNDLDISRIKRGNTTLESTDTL

[2] = test system: simian (chimpanzee) P2RY14; test: CellKey System live cell functional assay, simian P2RY14; type: cell-based; conditions: HEK cells expressing simian P2RY14 and Gqi5
Method: (§1) The Cellkey System™ (MDS Sciex), a novel, live cell, label-free, real-time technology, was used to examine P2RY14 activation following agonist stimulation. The CellKey System™ is based on cellular dielectric spectroscopy (CDS) and monitors changes in impedance of the applied electrical current through the cell monolayer upon receptor activation.
(§2) On the following day, growth medium was removed from the cell monolayer and replaced with 135 μl of HBSS pH 7.4 containing 20 mM Hepes for a 30 minutes pre-incubation period at room temperature. Baseline measurements were made for 5 minutes at 28° C. prior to ligand addition. For agonist assays, 15 μl of 10× agonist diluted in HBSS pH 7.4 containing 20 mM HEPES was added to the cell monolayer simultaneously using the 96 multichannel head from the CellKey™ System. Cellular response was monitored for 10 minutes to assess cellular response after ligand addition.

[3] = test system: HEK cells not expressing P2RY14; test: FLIPR Ca2+ release in HEK cells not expressing P2RY14 (specificity); type: cell-based
P2RY14 [4] = molecular target: T1, P2RY14; test: FLIPR whole cell Ca2+ agonist assay, HEK cells expressing human P2RY14 and Gqi5; type: cell-based; parameters: expressed in transfected cells; conditions: HEK cells expressing human P2RY14 and Gqi5, FLIPR
Description: Stable HEK clonal cell lines expressing P2RY14 and the chimeric G protein Gqi5 were constructed. The chimeric Gqi5 forces the coupling of P2RY14 through the Gq (calcium) pathway and allows for monitoring of calcium signaling using a calcium binding fluorescent dye and a FLIPR (fluorometric imaging plate reader, MDS Sciex). Vector pCEP4 comprising the chimeric Gqi5 was obtained from Molecular Devices, Sunnyvale, Calif. (Cat. No. RD-PGQI5).
The human P2RY14 was PCR amplified from the I.M.A.G.E. clone obtained from Invitrogen, Carlsbad, Calif. […] The codon encoding glutamate at position 54 in the wild-type human P2RY14 was changed to code for lysine. […] The PCR reaction was done in two parts. In the first part, the reaction was 5 cycles at 94° C. for 30 seconds, 65° C. for 30 seconds, and 72° C. for 90 seconds. In the second part, the reaction was 25 cycles at 94° C. for 30 seconds, 70° C. for 30 seconds, 72° C. for 90 seconds. The last cycle was followed by 7 minutes at 72° C. The PCR amplified human P2RY14 was digested with KpnI and NotI and cloned into a pcDNA3.1 (+) vector previously digested with KpnI and NotI to place the DNA fragment in the proper orientation downstream of the CMV promoter. The nucleic acid encoding the human P2RY14 was under the control of the CMV promoter.
Cells were grown in DMEM medium containing 25 mM HEPES, pH 7.4 and 10% FBS, 50 units/ml penicillin/50 μg/ml streptomycin, 2 mM glutamine and 1 mM sodium pyruvate at 37° C. in humidified air containing 5% CO2. Two days post-transfection, cells were grown under selection in the DMEM medium as indicated above and supplemented with 200 μg/ml Hygromycin B and 250 μg/ml geneticin.
Cells were incubated overnight at 37° C. and 5% CO2 to form a monolayer. On the following day, 30 μl of fluorescent no-wash dye was added to the cell monolayer and the plate was incubated for 60 minutes at 37° C., 5% CO2.
For agonist assays, 6.12 μl of 10× agonist solution was added to the cell/dye incubation and Ca^2+ signaling was monitored by FLIPR. For antagonist assays, 250 nl of compound in 100% DMSO was added to cell/dye mixture; following a 20 minute incubation at room temperature, 6.12 μl of 10× agonist solution at EC80 in HBSS containing 20 mM Hepes was added to cells and Ca^2+ signaling was monitored by FLIPR. Quantitation of the % stimulation or inhibition of Ca^2+ signaling by agonist or antagonist, respectively, was calculated using the Max-Min fluorescent signal detected.

mouse P2RY14 = molecular target: T2, mouse P2RY14 (Mus musculus, UniProt Q9ESG6); test: CellKey System live cell functional assay, mouse P2RY14; type: cell-based; conditions: HEK cells expressing mouse P2RY14 and Gqi5
T2 construct: expressed in transfected cells
T2 sequence (Q9ESG6 1-338): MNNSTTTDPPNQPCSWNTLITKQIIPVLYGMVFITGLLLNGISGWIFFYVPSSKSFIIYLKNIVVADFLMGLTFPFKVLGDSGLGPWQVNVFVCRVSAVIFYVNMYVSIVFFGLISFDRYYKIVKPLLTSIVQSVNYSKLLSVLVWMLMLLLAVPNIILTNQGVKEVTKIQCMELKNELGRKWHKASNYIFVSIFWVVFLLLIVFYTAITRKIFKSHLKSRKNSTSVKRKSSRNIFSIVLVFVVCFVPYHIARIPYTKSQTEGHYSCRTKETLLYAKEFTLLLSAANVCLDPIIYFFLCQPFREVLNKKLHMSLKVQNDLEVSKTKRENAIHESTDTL
Method: as §1, §2

O=c1ccn([C@@H]2O[C@H](COP(=O)(O)O)[C@@H](O)[C@H]2O)c(=O)[nH]1 [UMP]
activation of P2RY14 (P2RY14 [1]): unable to activate | P2RY14 signaling (impedance, CellKey) [2]: mediated signaling | Ca2+ release in cells not expressing P2RY14 [3]: do not stimulate Ca^2+ release | activation of P2RY14 (Ca2+ signaling) (P2RY14 [4]): activated | P2RY14 signaling (impedance, CellKey) (mouse P2RY14): mediated signaling
